Laboratory results taken from article PMC4912613, “A broad analysis of resistance development in the malaria parasite” (Nature Communications, 2016).
pEC50: −log10 of the molar value. Where two headings read alike, the source gives them in different places.

Legend:
[1] = system: Stage 5 gametocytes from P. falciparum NF54; experiment: Late-stage (stage V) gametocyte survival assay, MitoTracker; assay type: cell-based, Plasmodium falciparum; details: for pEC50: Plasmodium falciparum, P. falciparum NF54, 72 h, read-out: Stage 5 Gametocyte EC50; for EC50 fold shift compared to asexual stage: Stage 5 Gametocyte EC50: gametocyte EC50 / 3D7 EC50
Procedure: The second assay was a late-stage (stage V) gametocyte survival assay, which predicts transmission-blocking activity. […] Positive and negative control compounds included puromycin (0.61±0.11 μM) and atovaquone (> 12.50 μM), respectively.
To test sexual-stage activity, compounds were tested against late-stage gametocytes using a MitoTracker fluorescent-based assay. Specifically, synchronized stage V gametocytes were incubated with compound for 72 h. MitoTracker Red CMXRos (Life Technologies) was added to each well (final concentration: 500 nM) together with saponin to lyse the RBCs. Each plate was then imaged with an Operetta High Content Imaging System (Perkin Elmer) for fluorescence (590–640 nm). Varying levels of compound concentration were used (1.25 μM or 12.5 μM) due to the stock concentration supplied.
The gametocytocidal activity was measured using high-content image analysis software (Harmony, Perkin Elmer). The readout was based on number of metabolically active gametocytes per well.

P. falciparum strain 3D7 = experiment: Asexual blood stage 3H-hypoxanthine incorporation assay, 3D7; assay type: cell-based, Plasmodium falciparum; details: Plasmodium falciparum
Procedure: (§1) The 48-h assay was carried out in a 96-well format following standard methods using the ^3H-hypoxanthine incorporation assay. The raw EC50 values corresponding to this assay can be found in Supplementary Data 3. Briefly, this assay relies on the parasite incorporation of labelled hypoxanthine that is proportional to P. falciparum growth. A culture of parasitized RBCs (0.5% parasitemia with a percentage of ring stage higher than 70% of total parasitemia, 2.0% haematocrit) in RPMI-1640, […] and 5 μM hypoxanthine was exposed to drug serial dilutions. Plates were incubated for 24 h at 37 °C, 5% CO2, 5% O2 and 90% N2. After 24 h of incubation, ^3H-hypoxanthine was added and plates were incubated for an additional 24-h period. After that, parasites were harvested on a glass fibre filter using a TOMTEC Cell Harvester 96. Filters were dried and melt-on scintillator sheets were used to determine the incorporation of ^3H-hypoxanthine. Radioactivity was measured using a microbeta counter. Data were normalized using the incorporation of the positive (parasitized RBCs without drug) and negative (same culture with artesunate at 2 μM) controls. All assays were conducted in triplicate using three independently grown cultures, and EC50 values were determined using the XLfit add-in module for Excel (version 2.3.1) from Grafit (version 5.3.1.3), where parameter h is the assay hill slope, x is the compound concentration and y is the inhibition of growth effect. The XLfit equation is: […]

3D7 = experiment: Cross-resistance EC50 assay, 3D7 parent / sensitive strain; assay type: cell-based; details: Plasmodium falciparum; for EC50: asynchronized parasites, 96-well or 1536-well format, 3D7 parent, read-out: 3D7 (PARENT) EC50 (µM) Average EC50; for pEC50: synchronized parasites
Source text: Multidrug resistance alleles, including mutations in P. falciparum chloroquine resistance transporter (pfcrt) and P. falciparum multi-drug resistance transporter 1 (pfmdr1) are very common in field isolates. Therefore, we sought to assess the degree to which pre-existing resistance alleles would contribute to a loss of potency for this diverse collection of small molecule compounds. Fifteen clones derived from three main parent lines were chosen to maximize diversity in mutated pathways and genetic backgrounds, thus representing the variety of resistance seen in the field: 3D7 (ref. [23]), W2 (ref. [24]) or Dd2 (ref. [25]). The 3D7 line originates from the clone of a Netherlands clinical isolate strain[23][26] and is generally considered to be drug sensitive, though it does convey resistance to sulfadoxine. Conversely, W2 (ref. [24], [27]) and Dd2 (ref. [25]) are multi-drug-resistant lines originating from the Indochina III/CDC isolate, which contain point mutations in pfcrt as well as amplifications in pfmdr1 and GTP cyclohydrolase.
To evaluate potential overlapping activity against known antimalarial drug targets, we performed dose-response studies with each compound against our assembled set of drug-resistant lines and their corresponding parents, in an asexual blood stage proliferation assay (Table 1). Comparisons were made to the drug-sensitive strain 3D7 when a parent was unavailable (TM90C2A, W2 and Dd2). As laboratories conducted EC50 assays with different strains and protocols, all comparisons were made between assays from the same laboratory and under the same assay conditions. Compounds displaying >5-fold EC50 shifts relative to the parent or sensitive strain were flagged as having potentially non-novel targets. Average fold shifts per strain ranged from 0.82 to 2.34, with a median of 1.23 indicating there was not common resistance to any one resistant clone. No resistance patterns were observed when classifying the compounds based on chemical structure, but this was not surprising given the diversity of compounds chosen. On the other hand, given that these confirmed compounds were derived from larger unconfirmed hit lists to which some filtration criteria may have been applied (for example, elimination of obvious dihydrofolate reductase inhibitors[32]), some[10][11][12][13] pre-existing bias may exist in the set.
as §1
Alternatively, a SYBR Green-based proliferation approach was used for the 72-h assay, as previously described. […]

[2] = 3D7, asexual stage, P. falciparum 3D7, read-out: 3D7 EC50
[3] = SYBR green 72 hour assay, 384-well format, strain 3D7 (parent), read-out: 3D7 (PARENT) Average EC50
[4] = hypoxanthine 48-hour assay, 96-well format, strain 3D7 (parent), read-out: 3D7 (PARENT) Average EC50
[5] = hypoxanthine 48-hour assay, 96-well format, strain 3D7-C9-WT (parent of PfATP4 Mut3), read-out: 3D7-C9-WT (PARENT) Average EC50

In the case of `CCN(CC)CCn1c(=N)n(CC(O)c2ccc(Cl)c(Cl)c2)c2ccccc21.Cl` (centres unmarked) [MMV000248], the pEC50 [1] was 5.80, the “EC50 fold shift compared to asexual stage: Stage 5 Gametocyte EC50” value (shortened to “EC50 fold shift”) [1] was 5.23 and the pEC50 (P. falciparum strain 3D7; [2]) was 6.51. It also gave an EC50 (3D7; SYBR green 72 hour assay) of 0.138 µM, a pEC50 (3D7; [3]) of 6.63 and a pEC50 (3D7; [4]) of 6.51. For the same molecule, the pEC50 (3D7; [5]) was 6.40.

For `c1cc(-c2cnc3ccc(-c4ccc(N5CCOCC5)cc4)nn23)ccn1` [MMV668311], the pEC50 [1] was 6.06, the “EC50 fold shift” value [1] was 18.31 and the pEC50 (P. falciparum strain 3D7; [2]) was 7.32. The EC50 (3D7; SYBR green 72 hour assay) was 0.014 µM, the pEC50 (3D7; [3]) was 7.48 and the pEC50 (3D7; [4]) was 7.30. For the same molecule, the pEC50 (3D7; [5]) was 7.74.

`Brc1ccc(Nc2nc3ccccc3nc2Nc2ccc(Br)cc2)cc1` [MMV007224] was tested, and the pEC50 [1] was 5.60, the “EC50 fold shift” value [1] was 11.35 and the pEC50 (P. falciparum strain 3D7; [2]) was 6.65. The EC50 (3D7; SYBR green 72 hour assay) was 0.709 µM, the pEC50 (3D7; [3]) was 6.44 and the pEC50 (3D7; [4]) was 6.55. For the same molecule, the pEC50 (3D7; [5]) was 6.40.

In the case of `CN(C)S(=O)(=O)c1cc(-c2ccc3nccc(-c4cccc(S(N)(=O)=O)c4)c3c2)cnc1N` [MMV024038], the pEC50 [1] was 6.50, the “EC50 fold shift” value [1] was 1.39 and the pEC50 (P. falciparum strain 3D7; 3D7, text value, read-out: asexual stage EC50) was 6.64. It also gave an EC50 (3D7; SYBR green 72 hour assay) of 0.764 µM, a pEC50 (3D7; [3]) of 6.66 and a pEC50 (3D7; [4]) of 6.76. For the same molecule, the pEC50 (3D7; [5]) was 6.59.

With `COc1cc2cc(C(=O)Nc3ccccc3)c(N)nc2cc1OC` [MMV006767] the pEC50 [1] was under 4.90, the pEC50 (P. falciparum strain 3D7; [2]) was 6.02 and the EC50 (3D7; SYBR green 72 hour assay) was 1.51 µM. It also gave a pEC50 (3D7; [3]) of 6.12, a pEC50 (3D7; [4]) of 6.02 and a pEC50 (3D7; [5]) of 6.13.

With `Nc1ncc(-c2cn[nH]c2)cc1-c1nc2ccc(F)cc2[nH]1` [MMV023367] the pEC50 [1] was 5.18, the “EC50 fold shift” value [1] was 22.12 and the pEC50 (P. falciparum strain 3D7; [2]) was 6.52. For the same molecule, the EC50 (3D7; SYBR green 72 hour assay) was 1.13 µM, the pEC50 (3D7; [3]) was 6.28 and the pEC50 (3D7; [4]) was 6.52. For the same molecule, the pEC50 (3D7; [5]) was 6.57.

In the case of `CCN(CC)S(=O)(=O)c1ccc(-c2csc(Nc3ccc(C)c(C)c3)n2)cc1` [MMV009108], the pEC50 [1] was 6.04, the “EC50 fold shift” value [1] was 0.99 and the pEC50 (P. falciparum strain 3D7; [2]) was 6.03. The EC50 (3D7; SYBR green 72 hour assay) was 0.851 µM, the pEC50 (3D7; [3]) was 6.12 and the pEC50 (3D7; [4]) was 6.03. The pEC50 (3D7; [5]) was 5.95.

`CN1CCN(c2ccc(Nc3c4ccccc4nc4ccccc34)cc2)CC1` [MMV006172] gave a pEC50 [1] of 6.04, a pEC50 (P. falciparum strain 3D7; [2]) of 7.02 and an EC50 (3D7; SYBR green 72 hour assay) of 0.126 µM. For the same molecule, the pEC50 (3D7; [3]) was 7.34, the pEC50 (3D7; [4]) was 7.05 and the pEC50 (3D7; [5]) was 7.01.

In the case of `Cc1c(C)n(Cc2ccc(F)cc2)c2ccc(C(=O)NCc3ccco3)cc12` [MMV008149], the pEC50 [1] was under 5.90, the “EC50 fold shift” value [1] was 1.62 and the pEC50 (P. falciparum strain 3D7; [2]) was 6.11. For the same molecule, the EC50 (3D7; SYBR green 72 hour assay) was 1.06 µM, the pEC50 (3D7; [3]) was 6.45 and the pEC50 (3D7; [4]) was 6.11. It also gave a pEC50 (3D7; [5]) of 5.56.

For `CC(C)c1cccc(C(NC(=O)C2Cc3ccccc3CN2C(=O)c2cccc(N3CCOCC3)c2)C2CCCC2)c1` (centres unmarked) [MMV028038], the pEC50 [1] was 5.93, the “EC50 fold shift” value [1] was 2.19 and the pEC50 (P. falciparum strain 3D7; [2]) was 6.27. For the same molecule, the EC50 (3D7; SYBR green 72 hour assay) was 1.09 µM, the pEC50 (3D7; [3]) was 6.09 and the pEC50 (3D7; [4]) was 6.24. The pEC50 (3D7; [5]) was 6.08.
